Assay results as given in patent US7910559B2, “Decladinosyl-macrolides with anti-inflammatory activity” (GlaxoSmithKline istrazivacki centar Zagreb d.o.o., priority 2005, dated 2011).
Like-named read-outs stand apart in the source and are kept apart here.

How the values were obtained:
Assay type in all cases: cell-based
human IL-1β = test: Inhibition of IL-1β production by stimulated human peripheral blood leukocytes in vitro (ELISA); details: Homo sapiens, Leukocyte, PBL, read-out: Percentage of inhibition of IL-1β production; for inhibition at 10 µM: compound 10 μM; for inhibition at 50 µM: compound 50 μM
Description: (§1) Substances, used in in vitro experiments, were dissolved in dimethyl sulfoxide (DMSO) (Kemika, Croatia) at concentrations of 50 mM and 10 mM and were further diluted to the final concentrations of […] in 1 mL Dulbecco's modified Eagle medium (DMEM) supplemented with 1% heat inactivated fetal bovine serum (FBS), 1% glutamax, 50 U/ml penicillin, 50 μg/ml streptomycin and 2.5 μg/mL Fungizone (amphotericin B). Media and all media supplements were purchased from Gibco, Australia, except FBS that was from Sigma, USA.
(§2) Peripheral blood leukocytes (PBL) were obtained from venous blood of healthy volunteers by sedimentation on 2% dextran T-500 (Amersham Biosciences, USA) and subsequent centrifugations of leukocyte-rich plasma.
(§3) Peripheral blood leukocytes (PBL), isolated as described above, were seeded in a 48-well plate at a concentration of 3-5×10^6 cell per well in culture medium consisting of RPMI 1640 medium (Institute of Immunology, Croatia) supplemented with 10% heat-inactivated fetal calf serum (FCS, Biowhittaker, USA), 100 U/ml penicillin (Gibco, Australia), 100 μg/ml streptomycin (Gibco, Australia) and 2 mM L-glutamine (Gibco, Australia), and preincubated with the tested compounds for 2 h at 37° C., in an atmosphere of 5% CO2, and 90% humidity. Afterwards, stimuli (Sigma, USA) were added to a final concentration of 2 μg/mL lipopolysaccharide (LPS), 1 μg/mL phorbol 12-myristate 13-acetate (PMA) or 120 μg/mL zymosan. Samples were incubated overnight under conditions described above. At the end of incubation supernatants were transferred to eppendorf tubes and centrifuged for 10 min at 1500 g. Concentrations of human TNF-α, IL-1β, IL-6 and IL-8 were determined in cell supernatants by sandwich ELISA, using capture and detection antibodies (R&D, USA) according to manufacturer's recommendations.
(§4) Inhibition (as percentage) was calculated using the following formula: % inhibition=(1−concentration of cytokines in sample/concentration of cytokines in positive control)×100 where “positive control” refers to stimulated samples not treated with substances.

human IL-6 = test: Inhibition of IL-6 production by stimulated human peripheral blood leukocytes in vitro (ELISA); details: Homo sapiens, Leukocyte, PBL, read-out: Percentage of inhibition of IL-6 production; for inhibition at 10 µM: compound 10 μM; for inhibition at 50 µM: compound 50 μM
Description: as §1, §2, §3, §4

A549 = details: human, 24 h
Description: (§5) Anti-inflammatory activity of compounds, i.e. observed inhibition of cytokine production and inhibition of proliferation in vitro, is not a consequence of their cytotoxicity.
(§6) Measurement of the succinate dehydrogenase activity in living cells was performed in order to assess the cytotoxicity of compounds of the invention. Cells were cultured for 24 hours in RPMI medium as described above at 37° C., in the presence of the tested compounds at concentrations of 50 μM and 12.5 μM. Afterwards, MTT [3-(4,5-dimethylthiazole-2-yl)-2,5-diphenyl tetrazolium bromide] (Promega, USA) as detection reagent was added and incubated for 0.5-2 hours. The amount of produced MTT-Formazan was determined spectrophotometrically at 490 nm (Mosmann, J. Immunol. Methods, 1983, 65: 55-63).
(§7) Percentage of viable cells was calculated using the following formula: % viable cells=[…]

Hep G2 = details: human, 24 h
Description: as §5, §6, §7

THP-1 = details: human, 24 h
Description: as §5, §6, §7

human IL-8 = test: Inhibition of IL-8 production by stimulated human peripheral blood leukocytes in vitro (ELISA); details: Homo sapiens, Leukocyte, PBL, read-out: Percentage of inhibition of IL-8 production; for inhibition at 10 µM: compound 10 μM; for inhibition at 50 µM: compound 50 μM
Description: as §1, §2, §3, §4

human TNF-α = test: Inhibition of TNF-α production by stimulated human peripheral blood leukocytes in vitro (ELISA); details: Homo sapiens, Leukocyte, PBL, read-out: Percentage of inhibition of TNF-α production; for inhibition at 10 µM: compound 10 μM; for inhibition at 50 µM: compound 50 μM
Description: as §1, §2, §3, §4

SMILES	inhibition at 10 µM (human IL-1β; LPS stimulation) [%]	inhibition at 50 µM (human IL-1β; LPS stimulation) [%]	inhibition at 10 µM (human IL-1β; PMA stimulation) [%]	inhibition at 50 µM (human IL-1β; PMA stimulation) [%]	inhibition at 10 µM (human IL-1β; zymosan stimulation) [%]	inhibition at 50 µM (human IL-1β; zymosan stimulation) [%]	inhibition at 10 µM (human IL-6; LPS stimulation) [%]	inhibition at 50 µM (human IL-6; LPS stimulation) [%]	inhibition at 10 µM (human IL-6; PMA stimulation) [%]	inhibition at 50 µM (human IL-6; PMA stimulation) [%]	inhibition at 10 µM (human IL-6; zymosan stimulation) [%]	inhibition at 50 µM (human IL-6; zymosan stimulation) [%]	Percentage of viable cells after treatment (A549; 12.5 μM) [%]	Percentage of viable cells after treatment (A549; 50 μM) [%]	Percentage of viable cells after treatment (Hep G2; 12.5 μM) [%]	Percentage of viable cells after treatment (Hep G2; 50 μM) [%]	Percentage of viable cells after treatment (THP-1; 12.5 μM) [%]	Percentage of viable cells after treatment (THP-1; 50 μM) [%]	inhibition at 10 µM (human IL-8; LPS stimulation) [%]	inhibition at 50 µM (human IL-8; LPS stimulation) [%]	other results
CC[C@H]1OC(=O)[C@H](C)[C@@H](OC(=O)CCN2CCN(CCN(C)C)CC2)[C@H](C)[C@@H](O[C@@H]2O[C@H](C)C[C@H](N(C)C)[C@H]2O)[C@](C)(OC)C[C@@H](C)C(=O)N[C@H](C)[C@@H](O)[C@]1(C)O [Example 19, 6-O-Methyl-3-O-decladinosyl-3-O-{3-[4-(2-Dimethylamino-ethyl)-piperazin-1-yl]-propionyl}-9a-aza-9a-homoerythromycin A]	44	73	66	86	35	80	16	56	56	61	19	44	100	>95	100	100	100	100	6	32	inhibition at 10 µM (human IL-8; PMA stimulation): 14%; inhibition at 50 µM (human IL-8; PMA stimulation): 0%; inhibition at 10 µM (human IL-8; zymosan stimulation): 9%; inhibition at 50 µM (human IL-8; zymosan stimulation): 26%; inhibition at 10 µM (human TNF-α; LPS stimulation): 11%; inhibition at 50 µM (human TNF-α; LPS stimulation): 7%; inhibition at 10 µM (human TNF-α; PMA stimulation): 53%; inhibition at 50 µM (human TNF-α; PMA stimulation): 82%; inhibition at 10 µM (human TNF-α; zymosan stimulation): 18%; inhibition at 50 µM (human TNF-α; zymosan stimulation): 12%
CC[C@H]1OC(=O)[C@H](C)[C@@H](OC(=O)CCN(C)CCO)[C@H](C)[C@@H](O[C@@H]2O[C@H](C)C[C@H](N(C)C)[C@H]2O)[C@](C)(OC)C[C@@H](C)C(=O)N[C@H](C)[C@@H](O)[C@]1(C)O [Example 23, 6-O-Methyl-3-O-decladinosyl-3-O-{3-[(2-Hydroxy-ethyl)-methyl-amino]-propionyl}-9a-aza-9a-homoerythromycin A]	73	100	81	98	70	100	8	100	51	92	26	100	100	>95	100	100	100	100	0	95	inhibition at 10 µM (human IL-8; PMA stimulation): 0%; inhibition at 50 µM (human IL-8; PMA stimulation): 90%; inhibition at 10 µM (human IL-8; zymosan stimulation): 0%; inhibition at 50 µM (human IL-8; zymosan stimulation): 98%; inhibition at 10 µM (human TNF-α; LPS stimulation): 0%; inhibition at 50 µM (human TNF-α; LPS stimulation): 97%; inhibition at 10 µM (human TNF-α; PMA stimulation): 58%; inhibition at 50 µM (human TNF-α; PMA stimulation): 79%; inhibition at 10 µM (human TNF-α; zymosan stimulation): 0%; inhibition at 50 µM (human TNF-α; zymosan stimulation): 96%
CC[C@H]1OC(=O)[C@H](C)[C@@H](OC(=O)CCN2CCCN(CCCN3CCCC3)CC2)[C@H](C)[C@@H](O[C@@H]2O[C@H](C)C[C@H](N(C)C)[C@H]2O)[C@](C)(OC)C[C@@H](C)C(=O)N[C@H](C)[C@@H](O)[C@]1(C)O [Example 24, 6-O-Methyl-3-O-decladinosyl-3-O{3-[4-(3-Pyrrolidin-1-yl-propyl)-[1,4]diazepan-1-yl]-propionyl}-9a-aza-9a-homoerythromycin A]	65	98	84	98	70	100	8	98	48	89	33	100	>90	>90	>95	100	100	100	0	94	inhibition at 10 µM (human IL-8; PMA stimulation): 3%; inhibition at 50 µM (human IL-8; PMA stimulation): 81%; inhibition at 10 µM (human IL-8; zymosan stimulation): 0%; inhibition at 50 µM (human IL-8; zymosan stimulation): 92%; inhibition at 10 µM (human TNF-α; LPS stimulation): 0%; inhibition at 50 µM (human TNF-α; LPS stimulation): 91%; inhibition at 10 µM (human TNF-α; PMA stimulation): 65%; inhibition at 50 µM (human TNF-α; PMA stimulation): 68%; inhibition at 10 µM (human TNF-α; zymosan stimulation): 0%; inhibition at 50 µM (human TNF-α; zymosan stimulation): 92%
